Test results published in PMC7076650, “Co-Encapsulation of Mitoxantrone and β-Elemene in Solid Lipid Nanoparticles to Overcome Multidrug Resistance in Leukemia” (Pharmaceutics, 2020).
Converted amounts (≈) assume the structure as drawn. Like-named read-outs stand apart in the source and are kept apart here. Each block holds one compound with its values, some of them ahead of it.

Key:
K562/DOX cells [1] = assay: Drug efflux study (DOX retained, flow cytometry), K562/DOX cells; format: cell-based; conditions: 10 μg/mL DOX loaded 4 h at 37 °C, then free medium
Description: In order to determine DOX efflux, K562 and K562/DOX cells were seeded and incubated in 12-well plates (1 × 10^5 cells/well). Different DOX formulations diluted with fresh medium to a concentration of 10 μg/mL were incubated with K562 and K562/DOX cells for 4 h at 37 °C. Subsequently, the cells were washed three times with ice-cold PBS, and then incubated with free medium at another 0.5, 1, 2, and 4 h. Ice-cold PBS was used to wash the cells at the end of each incubation time. The amounts of DOX retained in cells were determined by flow cytometry. The investigation was carried out in triplicate.

K562/DOX cells [2] = assay: MTT assay of combinatorial effects of MTO and βE in different mass ratios; format: cell-based; conditions: Homo sapiens, 48 h of incubation
Description: The combinatorial effects of MTO and βE in different ratios (w/w) were assessed against K562/DOX through MTT assay. With a density of 5 × 10^3 cells/well, K562/DOX cells were seeded in 96-well plates and incubated for 48 h, then treated with different concentrations of MTO dissolved in the free medium of RPMI-1640, βE dissolved in the mixture of (RPMI-1640 and 0.5% DMSO), and different combination mass ratios of MTO/βE (10:1, 5:1, 2:1, 1:1, 1:2, 1:5, and 1:10 w/w). After 48 h of incubation, cells were washed twice with cold PBS, and then incubated again for 4 h with 20 µL of MTT solution (5 mg/mL) added to each well. In order to solubilize the formazan crystals, 150 μL of DMSO per well was added to replace the medium. Finally, a Microplate Reader (Biotech, Winooski, VT, USA) was used to measure the UV absorbance intensity at 570 nm. Each measurement was performed in triplicate. The cell viability percentage was evaluated using the following equation: Cell Viability (%)=ODsample /ODcontrol×100% where ODSample stands for the optical density (absorbance intensity) of the cells treated with MTO, βE, or MTO in combination with βE, while ODControl is the absorbance intensity of the untreated cells. […] The synergistic effect of different combinations of MTO and βE was assessed through the calculation of combination index (CI) using the equation of Chou and Talalay. […]

K562 cells = assay: MTT cytotoxicity of MTO formulations in K562 cells; format: cell-based; conditions: n = 3; for IC50: Homo sapiens, K562, 48 h
Description: (§1) A cytotoxicity study of MTO, MTO/βE, MTO-SLNs, and MTO/βE-SLNs was also carried out by MTT assay in both K562 and K562/DOX cells lines. K562 cells and K562/DOX cells were seeded in a 96-well plate at a density of 5 × 10^3 cells/well and incubated for 48 h. Then, the cells were treated with MTO, MTO/βE, MTO-SLNs, and MTO/βE-SLNs at different doses (total amount of MTO in SLNs: 0.01, 0.1, 1, 2.5, 5, and 10 μg/mL in K562 cells and 0.1, 1, 10, 20, 40, and 80 μg/mL in K562/DOX cells for 48 h. After 48 h of incubation, cells were washed twice with cold PBS then incubated again for 4 h with 20 µL of MTT solution (5 mg/mL) added to each well. In order to solubilize the formazan crystals, 150 μL of DMSO per well was added to replace the medium. Finally, a Microplate Reader (Biotech) was used to measure the UV absorbance intensity at 570 nm. Each measurement was performed in triplicate. The cell viability percentage was evaluated using the following equation [4, 10]: Cell Viability (%)=ODsample /ODcontrol×100% where ODsample stands for the absorbance intensity of the cells treated with MTO, MTO/βE, MTO-SLNs, and MTO/βE-SLNs, while ODControl is the absorbance intensity of the untreated cells. The 50% inhibition concentrations (IC50) of different agents were calculated by Graph Pad Prism 5.0 software. All experiments were in triplicate and the results were given as means ± SD.
(§2) The different effects of drug formulations on K562/DOX were evaluated in the MDR reversal capacities through the index of drug resistance (IDR) and index of reversal of drug resistance (IRDR). IDR and IRDR were calculated as follows: IDR=IC50of other formulation against K562/DOX cells/IC50of MTO against K562 CellsIRDR=IC50of MTO against K562 cells /IC50of other formulation against K562/DOX cells

K562/DOX cells [3] = assay: MTT cytotoxicity of MTO formulations in K562/DOX cells; format: cell-based; conditions: for IC50: Homo sapiens, K562/DOX cells, n = 3
Description: as §1, §2

[4] = Pharmacokinetics after intravenous administration; format: in vivo, SD rats; conditions: rats; for AUC(0-t) / Cmax / half-life: male, Sprague-Dawley (SD), rat, plasma; for time post injection after which no drug was observed in plasma: free drug
Description: All the preparations were administered intravenously into the tail vein at a dose of 2 mg/kg (n = 6) for MTO and 4 mg/kg (n = 6) for βE. The blood samples were taken with a heparinized syringe at 0.5, 1, 2, 4, 6, 8, 12, and 24 h.

[5] = system: K562/DOX xenografts tumors; assay: In vivo antitumor activity in K562/DOX xenograft tumor model; parameters: species or system BALB/c nude mice; conditions: during treatment, compared with saline
Description: Mice bearing K562/DOX xenografts tumors were used to evaluate different MTO formulations through an in vivo antitumor efficacy study. K562/DOX cells at a concentration of 1 × 10^7 cells/mice with a volume of 200 μL were injected into the left axilla of BALB/c nude mice. After inoculation of cells, the growth of tumor was observed every two days by measuring the diameter of tumor with Vernier caliper. The tumor volume was calculated as (L × W^2)/2, where L and W are the tumor length and width, respectively. The anti-tumor evaluation was started when tumor volume reached about 100 mm^3, and this day was designated as day 0. Mice were randomly divided in five groups of six: Saline, MTO, MTO/βE, MTO-SLNs, and MTO/βE-SLNs (MTO dosage: 2 mg/kg and βE dosage: 4 mg/kg). The injections were carried out on days 0, 3, 6, 9, and 12 via the tail vein. In order to evaluate the treatment efficacy and safety, mice were sacrificed, and then tumors, heart, lung, liver, kidney, and spleen were dissected and fixed in 4% paraformaldehyde. In order to observe the pathological changes in different tissues, samples were cut and stained with hematoxylin and eosin (H&E) for histological analyses. An optical microscope (Leica DMI6000 B, Wetzlar, Germany) was used to take different photos. […]

K562/DOX cells [6] = assay: Intracellular ATP production assay; format: cell-based; conditions: 8 h at 37 °C
Description: An ATP assay kit was used to measure the intracellular ATP. K562/DOX cells at a density of 1 × 10^5 cells/well were seeded and cultured in 12-well plates and incubated for 24 h. The cells were then incubated with fresh medium containing MTO, MTO/βE, MTO-SLNs, and MTO/βE-SLNs for 8 h at 37 °C. The cell ATP content was determined based on the manufacturer’s protocol. Briefly, the cells were collected and lysed by 200 μL of lysis solution to obtain the cell lysate, followed by centrifugation at 12,000× g for 5 min at 4 °C. Next, 20 μL of the supernatant of each sample was mixed with 100 μL of ATP testing solution in a black 96-well plate, and kept for 10 min. A microplate luminometer (Luminoskan, Thermo Scientific, Waltham, MA, USA) was used to measure the luminescence intensity. The raw data were converted to ATP concentrations using the standard ATP calibration.

K562/A02 cells = system: K562/A02 cells; parameters: method as in PMID 29453043; conditions: cited from earlier work

Compound: COc1cccc2c1C(=O)c1c(O)c3c(c(O)c1C2=O)C[C@@](O)(C(=O)CO)C[C@@H]3O[C@H]1C[C@H](N)[C@H](O)[C@H](C)O1 [DOX, doxorubicin]
- DOX that underwent efflux (K562/DOX cells [1]): about 90%

- IC50 (K562/DOX cells [2]; n = 3, concentration of MTO alone or in the combination, read-out: IC50 MTO): 48.2 µg/mL
- AUC(0-t) ([4]; 2 mg/kg MTO, n = 6, read-out: AUC0–24 of MTO): 1180 ± 150 ng·h/mL
- Cmax ([4]; 2 mg/kg MTO, n = 6, read-out: Cmax of MTO): 3450 ± 580 ng/mL
- half-life ([4]; 2 mg/kg MTO, n = 6, read-out: T1/2 of MTO (converted)): 1.53 ± 0.33 h
- time post injection after which no drug was observed in plasma [4]: 6 h
Compound: Cl.Cl.O=C1c2c(O)ccc(O)c2C(=O)c2c(NCCNCCO)ccc(NCCNCCO)c21 [MTO, 1,4-dihydroxy-5,8-bis[[2-[(2-hydroxyethyl)amino]ethyl]amino] anthraquinone dihydrochloride]
- IC50 K562 (K562 cells; 48 h): 5.025 µg/mL
- IC50 (K562 cells): 5.02 µg/mL
- IC50 (K562/DOX cells [3]; 48 h): 48.2 µg/mL
- cell survival rate of K562/DOX cells (K562/DOX cells [3]; concentration of MTO 10 μg/mL, 48 h): 81.43%
- survival ratio in K562/DOX cells (K562/DOX cells [3]; concentration of MTO 80 μg/mL, 48 h): 24.06%
- IDR (index of drug resistance) (K562/DOX cells [3]; from IC50 in K562/DOX and K562 cells): 9.59
- body weight of mice [5]: decreased remarkably

- IC50 (K562/DOX cells [2]; n = 3, concentration of βE alone or in the combination, read-out: IC50 βE): 140 µg/mL
- AUC(0-t) ([4]; 4 mg/kg βE, n = 6, read-out: AUC0–24 of βE): 4860 ± 1760 ng·h/mL
- Cmax ([4]; 4 mg/kg βE, n = 6, read-out: Cmax of βE): 6680 ± 1210 ng/mL
- half-life ([4]; 4 mg/kg βE, n = 6, read-out: T1/2 of βE (converted)): 2.9 ± 0.45 h
- time post injection after which no drug was observed in plasma [4]: 12 h
Compound: C=CC1(C)CCC(C(=C)C)CC1C(=C)C (stereo not shown) [βE, 1-methyl-1-vinyl-2,4-diisopropenyl-cyclohexane]
- IC50 (K562 cells): 122 µg/mL (≈ 598 µM)
- IC50 (K562/DOX cells [3]; 48 h): 140 µg/mL (≈ 687 µM)
- effect on intracellular ATP (K562/DOX cells [6]): significant inhibitory capacity

Compound: ethyl lucidenates-A
- reversal of resistance of K562/A02 cells to vincristine (K562/A02 cells): 7.59 fold
